From patent US11077115B2, “Rorgamma modulators and uses thereof” (Genfit, priority 2017, dated 2021) come the findings set out here.

SMILES strings stand for the structures.

Assay [1] has as its target T1, RORγt ligand-binding domain (RORγt-LBD) (Homo sapiens, UniProt P51449).
T1 construct: 20 nM recombinantly expressed RORγ-LBD fused to GST
T1 sequence (P51449 269-508 limits assumed): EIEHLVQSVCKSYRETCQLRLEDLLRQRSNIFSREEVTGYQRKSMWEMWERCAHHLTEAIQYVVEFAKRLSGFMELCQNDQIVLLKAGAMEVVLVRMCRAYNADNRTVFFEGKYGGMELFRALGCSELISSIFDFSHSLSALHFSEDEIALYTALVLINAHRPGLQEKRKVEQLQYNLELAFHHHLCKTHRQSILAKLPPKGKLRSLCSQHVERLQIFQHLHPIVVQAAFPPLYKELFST
Kind of assay: Time-resolved FRET (TR-FRET) RORγt coactivator assay (RIP140 peptide displacement). The format is biochemical. The conditions noted are these: ligand-dependent coactivator-RORγt binding. The essentials:
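GST-tagged RORγt-LBD (20 nM) with 30 nM biotinylated RIP140 peptide, 1 nM streptavidin-terbium and 20 nM d2-anti-GST in CHAPS buffer with DTT, EDTA, BSA; 1% DMSO. Compounds 0.3 nM–30 μM, 2 h dark, room temperature. Coactivator displacement lowers TR-FRET signal; IC50 (μM) and Emax (%) derived.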

Assay [2] concerns the target T2, human RORγt (Homo sapiens, UniProt P51449).
T2 sequence (P51449 1-497 isoform P51449-2): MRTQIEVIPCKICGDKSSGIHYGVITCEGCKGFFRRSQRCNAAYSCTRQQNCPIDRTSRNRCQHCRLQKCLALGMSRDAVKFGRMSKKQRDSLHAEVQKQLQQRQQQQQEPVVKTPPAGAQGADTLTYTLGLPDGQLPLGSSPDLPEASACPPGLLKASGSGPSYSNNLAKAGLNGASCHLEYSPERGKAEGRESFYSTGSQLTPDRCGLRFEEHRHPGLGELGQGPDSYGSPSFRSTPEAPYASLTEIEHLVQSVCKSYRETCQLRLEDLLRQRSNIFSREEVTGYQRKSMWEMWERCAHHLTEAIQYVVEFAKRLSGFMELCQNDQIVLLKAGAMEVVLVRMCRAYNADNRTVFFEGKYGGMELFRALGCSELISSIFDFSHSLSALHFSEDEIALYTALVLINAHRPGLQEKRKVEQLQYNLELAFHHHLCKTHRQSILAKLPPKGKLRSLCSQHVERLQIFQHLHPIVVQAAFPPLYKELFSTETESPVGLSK
Kind of assay: IL-17 secretion from EL4 murine lymphoma overexpressing human RORγt. The assay is classed as cell-based. Details: V5-His (named only through the vector pcDNA3.1D/V5-His-TOPO); expressed in transfected cells. The note with it: IL-17 secretion inhibition in human RORγt-transfected EL4 Tcells, PMA/ionomycin stimulation. The protocol:
Murine EL-4 lymphoma cell line overexpressing human RORγt was used in this functional assay to assess compound ability to inhibit IL-17 cytokine secretion.
EL-4 cells are maintained in a standard culture medium RPMI supplemented with 10% fetal calf serum, 1% sodium pyruvate, 1% essential amino acids and 1% antibiotics at 37° C. in a humidified atmosphere of 5% CO2 and 95% air. Culture medium was changed every 2 days. EL4 cells were transfected with a plasmid encoding hRORγt (sequence identical to published sequence NM 001001523). […] Briefly, 1 μg of DNA/1 million cells was served to transfect EL-4 cells. Cell/DNA suspension was transferred into certified cuvette and the electroporation of RORγt plasmid was carried out using appropriate Nucleofector® program.
Cells were seeded in 96 well plates at a density of 150000 cells/well then treated with compounds of this invention at indicated concentrations and incubated for 24 hours at 37° C. in a humidified atmosphere of 5% CO2 and 95% air. EL-4 cells were pretreated with test compounds (RORγ modulators) and stimulated with PMA (10 ng/mL) and ionomycin (1 μM final concentration) in the presence of test compound concentrations for additional 24 h at 37° C. in a humidified atmosphere of 5% CO2 and 95% air. Subsequently, supernatants were collected (after centrifugation at 300 g for 10 minutes) to determine the concentrations of IL-17 by HTRF (CisBio, France) or ELISA (R&D Systems Europe) according to the manufacturer's protocols.

Assay [3] concerns the target T2, human RORγt. Kind of assay: RORE Luciferase/RORγt transactivation assay (IL-17 promoter luciferase reporter in COS-7 cells). The assay is classed as cell-based. Details: V5-His (named only through the vector pcDNA3.1D/V5-His-TOPO); expressed in transfected cells; host or cells: COS-7 (monkey kidney). The note with it: RORγt activity inhibition, luciferase activity in transfected COS-7 cells, 20 h. The essentials: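 COS-7 cells co-transfected with human RORγt and luciferase reporter driven by 4.3 kb IL-17 promoter with CNS enhancer, seeded in serum-free, phenol red-free DMEM. Compounds added at 0.3% DMSO final; luciferase read by Steady-Glo luminescence. IC50 (μM) and Emax (%) reported.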
Background: In a reporter assay the amount or activity of a reporter protein is the signal.

On to `Cc1ccc(C(NC(=O)C2(c3ccc(N4CCS(=O)(=O)CC4)cc3)CC2)c2ccc(C)o2)c(N2CCCCC2)c1` (centres unmarked) [Cpd. 32, 1-[4-(1,1-dioxo-1-thiomorpholin-4-yl)phenyl]-N-{[4-methyl-2-(piperidin-1-yl)phenyl](5-methylfuran-2-yl)methyl}cyclopropane-1-carboxamide], for which the IC50 in assay [1] was 100 to 1000 nM; in assay [2], less than 1000 nM; in assay [3] it was less than 100 nM.
As for `Cc1ccc(C(NC(=O)C2(c3cc(N4CCS(=O)(=O)CC4)ccc3C)CC2)c2ccc(C)o2)c(C)c1` (centres unmarked) [Cpd. 70, N-[(2,4-dimethylphenyl)(5-methylfuran-2-yl)methyl]-1-[5-(1,1-dioxo-1-thiomorpholin-4-yl)-2-methylphenyl]cyclopropane-1-carboxamide], the figures for the IC50 in assay [1] and in assay [2] were 100 to 1000 nM and 1000 to 10000 nM, respectively.
On to `Cc1ccc(C(NC(=O)Cc2ccc(N3CCS(=O)(=O)CC3)c(C)c2)c2ccc(C)o2)c(Br)c1` (centres unmarked) [Cpd. 11, N-[(2-bromo-4-methylphenyl)(5-methylfuran-2-yl)methyl]-2-[4-(1,1-dioxo-1-thiomorpholin-4-yl)-3-methylphenyl]acetamide], for which the figures for the IC50 in assay [1], in assay [2] and in assay [3] were less than 1000 nM, 100 to 1000 nM and 100 to 1000 nM, respectively.
As to `Cc1ccc(C(NC(=O)C2(c3cnc(N4CCS(=O)(=O)CC4)nc3)CC2)c2ccc(C)o2)c(Cl)c1` (centres unmarked) [Cpd. 52, N-[(2-chloro-4-methylphenyl)(5-methylfuran-2-yl)methyl]-1-[2-(1,1-dioxo-1-thiomorpholin-4-yl)pyrimidin-5-yl]cyclopropane-1-carboxamide], the IC50 was less than 1000 nM in assay [1], 100 to 1000 nM in assay [2] and 1000 to 10000 nM in assay [3].
As to `Cc1ccc(C(NC(=O)Cc2ccc(N3CCS(=O)(=O)CC3)cc2C)c2ccc(C)o2)c(C)c1` (centres unmarked) [Cpd. 19, N-[(2,4-dimethylphenyl)(5-methylfuran-2-yl)methyl]-2-[4-(1,1-dioxo-1-thiomorpholin-4-yl)-2-methylphenyl]acetamide], the IC50 in assay [1] is less than 1000 nM; in assay [2], less than 1000 nM; in assay [3], less than 100 nM.
On to `Cc1ccc(C(NC(=O)Cc2ccc(N3CCS(=O)(=O)CC3)nc2)c2ccc(C)o2)c(N2CCCCC2)c1` (centres unmarked) [Cpd. 27, 2-[6-(1,1-dioxo-1-thiomorpholin-4-yl)pyridin-3-yl]-N-{[4-methyl-2-(piperidin-1-yl)phenyl](5-methylfuran-2-yl)methyl}acetamide], for which the IC50 in assay [1] was less than 1000 nM; in assay [2], less than 1000 nM; in assay [3], less than 100 nM.
As to `Cc1ccc(C(NC(=O)Cc2cnc(N3CCS(=O)(=O)CC3)nc2)c2ccc(C)o2)c(N2CCCCC2)c1` (centres unmarked) [Cpd. 20, 2-[2-(1,1-dioxo-1-thiomorpholin-4-yl)pyrimidin-5-yl]-N-{[4-methyl-2-(piperidin-1-yl)phenyl](5-methylfuran-2-yl)methyl}acetamide], the results for the IC50 in assay [1], in assay [2] and in assay [3] were less than 1000 nM, less than 1000 nM and less than 100 nM, respectively.
In the case of `Cc1ccc(C(NC(=O)Cc2ccc(O)c(N3CCS(=O)(=O)CC3)c2)c2ccc(C)o2)c(N2CCCCC2)c1` (centres unmarked) [Cpd. 39, 2-[3-(1,1-dioxo-1-thiomorpholin-4-yl)-4-hydroxyphenyl]-N-{[4-methyl-2-(piperidin-1-yl)phenyl](5-methylfuran-2-yl)methyl}acetamide], the IC50 is less than 1000 nM in assay [1], less than 1000 nM in assay [2] and less than 100 nM in assay [3].
As for `Cc1ccc(C(NC(=O)Cc2ccc(N3CCS(=O)(=O)CC3)cc2C)c2ccc(C)o2)c(Br)c1` (centres unmarked) [Cpd. 21, N-[(2-bromo-4-methylphenyl)(5-methylfuran-2-yl)methyl]-2-[4-(1,1-dioxo-1-thiomorpholin-4-yl)-2-methylphenyl]acetamide], the results for the IC50 in assay [1], in assay [2] and in assay [3] were less than 1000 nM, 100 to 1000 nM and less than 100 nM, respectively.
As for `Cc1ccc(C(NC(=O)Cc2cc(N3CCS(=O)(=O)CC3)ccc2C)c2ccc(C)o2)c(N2CCCCC2)c1` (centres unmarked) [Cpd. 5, 2-[5-(1,1-dioxo-1-thiomorpholin-4-yl)-2-methylphenyl]-N-{[4-methyl-2-(piperidin-1-yl)phenyl](5-methylfuran-2-yl)methyl}acetamide], the IC50 in assay [1], in assay [2] and in assay [3] was 100 to 1000 nM in each case.
In the case of `CC(C)CC(NC(=O)C1(c2ccc(N3CCS(=O)(=O)CC3)cc2)CC1)c1ccccc1N1CCCCC1` (centres unmarked) [Cpd. 59, 1-[4-(1,1-dioxo-1-thiomorpholin-4-yl)phenyl]-N-[3-methyl-1-[2-(piperidin-1-yl)phenyl]butyl]cyclopropane-1-carboxamide], the IC50 in assay [1] is 100 to 1000 nM; in assay [2], 100 to 1000 nM; in assay [3] it was 1000 to 10000 nM.
For the compound `Cc1ccc(C(NC(=O)Cc2cc(N3CCS(=O)(=O)CC3)ccc2C)c2ccc(C)o2)c(N2CC3CC3C2)c1` (centres unmarked) [Cpd. 28, N-[(2-{3-azabicyclo[3.1.0]hexan-3-yl}-4-methylphenyl)(5-methylfuran-2-yl)methyl]-2-[5-(1,1-dioxo-1-thiomorpholin-4-yl)-2-methylphenyl]acetamide], the results for the IC50 in assay [1], in assay [2] and in assay [3] were less than 1000 nM, 100 to 1000 nM and 100 to 1000 nM, respectively.
Regarding `O=C(Cc1ccc(N2CCS(=O)(=O)CC2)cc1)NC(c1ccccc1)c1ccccc1N1CCCCC1` (centres unmarked) [Cpd. 1, 2-[4-(1,1-dioxo-1-thiomorpholin-4-yl)phenyl]-N-{phenyl[2-(piperidin-1-yl)phenyl]methyl}acetamide], the values for the IC50 in assay [1], in assay [2] and in assay [3] were less than 1000 nM, 100 to 1000 nM and 100 to 1000 nM, respectively.
Take `Cc1ccc(C(NC(=O)C2(c3ccc(N4CCS(=O)(=O)CC4)c(C)n3)CC2)c2ccc(C)o2)c(C)c1` (centres unmarked) [Cpd. 71, N-[(2,4-dimethylphenyl)(5-methylfuran-2-yl)methyl]-1-[5-(1,1-dioxo-1-thiomorpholin-4-yl)-6-methylpyridin-2-yl]cyclopropane-1-carboxamide]: the values for the IC50 in assay [1], in assay [2] and in assay [3] were less than 1000 nM, 100 to 1000 nM and less than 100 nM, respectively.
For `Cc1ccc(C(NC(=O)C2(c3cnc(N4CCS(=O)(=O)CC4)nc3)CC2)c2ccc(Cl)cc2Cl)o1` (centres unmarked) [Cpd. 54, N-[(2,4-dichlorophenyl)(5-methylfuran-2-yl)methyl]-1-[2-(1,1-dioxo-1-thiomorpholin-4-yl)pyrimidin-5-yl]cyclopropane-1-carboxamide], in that order: less than 1000 nM, 100 to 1000 nM and 100 to 1000 nM.
For the compound `Cc1ccc(C(NC(=O)Cc2cnc(N3CCS(=O)(=O)CC3)nc2C)c2ccc(C)o2)c(N2CCCCC2)c1` (centres unmarked) [Cpd. 38, 2-[2-(1,1-dioxo-1-thiomorpholin-4-yl)-4-methylpyrimidin-5-yl]-N-{[4-methyl-2-(piperidin-1-yl)phenyl](5-methylfuran-2-yl)methyl}acetamide], the IC50 in assay [1] is less than 1000 nM; in assay [2], less than 1000 nM; in assay [3] it was less than 100 nM.

In general, IC50 refers to the midpoint of a concentration-inhibition curve.
